{"source": "patent US20200392181A1", "about": "“PEPTIDE COMPOSITIONS AND RELATED METHODS” (Allegro Pharmaceuticals, LLC, priority 2017, published 2020)", "system": "ischemia-induced retinal neovascularization", "assay": "Mouse model of retinopathy of prematurity (ROP), ischemia-induced retinal neovascularization", "format": "in vivo, C57BI/6 mice", "conditions": "addition of three parts taurine to one part of the peptide", "procedure": "Each test compound was prepared in sterile water for injection, containing 0.08 mg/100 μL of sodium chloride and 0.005 mg/100 μL of trisodium citrate, the concentration of the peptide was at a concentration of 2.0 mg/100 μL and pH=2.7 and dispensed by sterile filtration into sterile vials. The Taurine test compound was obtained from Sigma Aldrich company, which was >99% pure, and prepared the same way as mentioned previously, having a concentration of 3.0 mg/100 μL. […]\nTo screen the test compounds for activity against ischemia-induced retinal neovascularization, the well-established model of retinopathy of prematurity (ROP) in mice was used. Litters of C57BI/6 mice were placed in 75% oxygen at postnatal day (P) 7, returned to room air at day (P) 12. The Pups were randomly assigned to treatment groups of 4 to 10 animals per group. The pups were treated as follows: Treatment eyes were treated by intravitreal injection of 1.0 microliters of solution containing 20 micrograms of Test Compound.\nOn post-natal day 17, 5 days after intravitreal injection, the animals were sacrificed, the retinas were flat mounted and the area of neovascularization in each retina was determined by Fluorescein-dextran image analysis. […]"}
{"substance": "Glycinyl-Arginyl-Glycinyl-Cysteic(Acid)-Threonyl-Proline [ALG-1001]", "values": [{"measurement": "neovascularization suppressing activity on addition of taurine", "result": "improves the neovascularization suppressing activity"}]}
